Paper PMC10570359, “Dietary supplementation of cystinotic mice by lysine inhibits the megalin pathway and decreases kidney cystine content” (Scientific Reports, 2023)
Read-outs that look alike come from different tables or passages of the source.

How the values were obtained:
megalin pathway = assay: LMW proteinuria (urinary CC16) in WT mice under 5x-dAA diets; format: in vivo; details: WT C57Bl-6 mice, 3 weeks diet, vs control diet
Protocol: In a second experiment, 5x-D-lysine was compared to regular diet.
(§1) Body weight was recorded before entering the metabolic cages. […] Creatinine clearance was normalized by mouse body weight.

[1] = Clinical urine and serum analyses in Ctns KO mice under 5x-dAA diets
From the text: We also attempted to further discriminate between luminal (competition for surface megalin binding) and intracellular metabolic effects (see Discussion) by comparing the effects of 5x-L-lysine to its stereoisomer, 5x-D-lysine. Unless stated otherwise, diets were initiated at 6 months-of-age, and mice were studied then euthanized at 8 months-of-age (2-months treatment). This time frame was selected for two reasons. First, in the mouse cystinosis model, this an appropriate window to evaluate the impact on PTC alterations based on changes in kidney cystine accumulation and overall function. […] Second, although primary prevention by earlier intervention (from 2-to-6 months-of-age) better mimics perinatal genetic megalin ablation, thus could be more efficient, secondary intervention (starting at 6 months-of-age), when disease becomes clinically apparent, is more relevant for further translational studies.
as §1

[2] = Urinary and serum amino-acid concentration by mass spectrometry in Ctns KO mice; format: in vivo; details: for Urinary alanine / Urinary cystine / Urinary glycine: Ctns KO mice at 8 months of age, 24-h urine, mean ± SEM; for increase of cystinuria: vs control diet; for concentration at 2 months: n = 4
Protocol: as §1
Quantitative analysis of underivatized amino-acids in serum and urine samples was performed using the Amino Acids LC–MS/MS analysis Kit Jasem®. […] Equipment was controlled and data were analyzed using MassHunter Workstation (Agilent Technologies). The assay was validated for selectivity, specificity, linearity and limit of quantification, accuracy and precision, matrix effects and recovery, and stability.

porcine megalin [3] = molecular target: T1, porcine megalin (Sus scrofa, UniProt C0HL13); assay: Surface plasmon resonance: competition for lysozyme binding to chip-immobilized megalin; details: 10 µg/ml lysozyme in 0 to 100 mM amino-acid
Protocol: (§2) To directly address whether supra-physiological concentrations of dibasic amino-acids (dAAs) can interfere with binding of protein ligands to megalin, we used surface plasmon resonance. Sensor chips were derivatized with porcine megalin at high density. […] After flushing, chips were incubated with 10 µg/ml of three analytes: the megalin chaperone, RAP (receptor-associated protein), as positive control (not shown), or two physiological megalin ligands: transcobalamine:cobalamine complexes (TC:B12; Fig. 1; sensorgrams shown at Supplemental Fig. 1a) or lysozyme (Supplemental Fig. 1b), diluted in 0 to 100 mM of the same amino-acids in buffer. […] The supraphysiological range for effective competition in vitro defined the necessary increment in urinary concentration from dietary supplementation for significant competition in vivo.
(§3) Surface plasmon resonance (SPR) analysis of the binding to chip-immobilized megalin of receptor-associated protein (RAP), transcobalamine:cobalamine complex (TC:B12) and lysozyme was carried out using a Biacore T200 instrument (Uppsala, Sweden). The sensor chips (type CM5) were activated with a 1:1 mixture of 0.2 M N-ethyl-N′-(3-dimethylaminopropyl) carbodiimide and 0.05 M N-hydroxysuccinimide in H2O. Porcine megalin[49] was immobilized on the chip in 10 mM sodium acetate, pH 4.0, and the remaining binding sites were blocked with 1 M ethanolamine, pH 8.5. The SPR signal generated from immobilized megalin were obtained with a density of 4.5 fmol protein/mm^2.
(§4) Human RAP was produced as recombinant protein in E. coli[50] and used to validate the sensor chip. TC was purified and complexed with B12 as described (TC/B12)[50],[51]. Human recombinant lysozyme was purchased from Sigma-Aldrich (expressed in rice, # L1667). Sensorgrams were generated using each of these three ligands at 10 µg/ml in a running buffer consisting of 10 mM Hepes, 150 mM NaCl, 4 mM CaCl2 and 0.05% Tween 20, pH 7.4. The flow cells were regenerated with 1 M ethanolamine pH 9.0. Analyte testing was performed as a dual injection starting with running buffer supplemented with the defined concentrations of amino acids followed by injection of analyte in the same solution. The pH of all buffers was adjusted after amino acids addition. All binding experiments were made as at least independent triplicate of technical duplicates and data were analyzed using the Biacore T200 evaluation software version 3.1.

porcine megalin [4] = molecular target: T1, porcine megalin; assay: Surface plasmon resonance: competition for TC:B12 binding to chip-immobilized megalin; details: for IC50: IC50 for TC:B12/megalin interaction (mM; 95%CI), 10 µg/ml TC:B12 in 0 to 100 mM amino-acid, Biacore; for SPR signal of amino-acid alone on megalin chip: chips exposed to increasing concentrations of amino-acid, no analyte
Protocol: as §2
Figure 1 Acellular assay: direct competition for transcobalamine:cobalamine binding to megalin immobilized on Biacore sensor chips. Signals of sensorgrams (shown in Supplemental Fig. 1) were normalized to control signal without AA supplementation, taken as the unity, and are means ± SEM of at least four independent technical duplicate values at each of the indicated amino-acid-concentrations.
as §3, §4

[5] = test system: kidney proximal tubular cells; details: Ctns KO mice kidneys at 8 months of age
Protocol: At cellular level, we assessed PT cell death linked to compensatory renewal, by measuring Ki-67 immunolabelling abundance, a validated proliferation index (Fig. 6a)[22].
(a) Proliferative events in PTCs were identified by Ki-67 immunolabelling in confocal images and scored over random fields to cumulative areas of 0.96 mm^2.
For immunofluorescence, antigen retrieval was promoted in citrate buffer, pH 6, at 95 °C for 20 min using a Lab Vision Pretreatment Module™ (Thermo Scientific). Tissue was permeabilized with PBS/0.3% Triton-X100 for 5 min, then for one further hour with 10% bovine serum albumin (BSA)/3% milk to block non-specific sites. […] After washing, sections were further incubated with the appropriate AlexaFluor-secondary antibodies for 1 h at room temperature in 10% BSA/0.3% Triton-X100 and mounted with Faramount aqueous mounting medium (Dako). Sections were imaged on a spinning disk confocal microscope using EC Plan-NeoFluar 40X/1.3 or 100x/1.4 Oil DIC objective (Cell Observer Spinning Disk; Zeiss). Proliferative events in kidney cortex were quantified as described[22].

[6] = Ctns KO mice at 8 months of age, 2 months of treatment, serum, mean ± SEM
[7] = Ctns KO mice at 8 months of age, 2 months of treatment, urine, mean ± SEM
[8] = Ctns KO mice, daily urine collections
[9] = female, C57BL/6, mouse, in vivo, 2 months

T1 sequence (C0HL13 26-4652): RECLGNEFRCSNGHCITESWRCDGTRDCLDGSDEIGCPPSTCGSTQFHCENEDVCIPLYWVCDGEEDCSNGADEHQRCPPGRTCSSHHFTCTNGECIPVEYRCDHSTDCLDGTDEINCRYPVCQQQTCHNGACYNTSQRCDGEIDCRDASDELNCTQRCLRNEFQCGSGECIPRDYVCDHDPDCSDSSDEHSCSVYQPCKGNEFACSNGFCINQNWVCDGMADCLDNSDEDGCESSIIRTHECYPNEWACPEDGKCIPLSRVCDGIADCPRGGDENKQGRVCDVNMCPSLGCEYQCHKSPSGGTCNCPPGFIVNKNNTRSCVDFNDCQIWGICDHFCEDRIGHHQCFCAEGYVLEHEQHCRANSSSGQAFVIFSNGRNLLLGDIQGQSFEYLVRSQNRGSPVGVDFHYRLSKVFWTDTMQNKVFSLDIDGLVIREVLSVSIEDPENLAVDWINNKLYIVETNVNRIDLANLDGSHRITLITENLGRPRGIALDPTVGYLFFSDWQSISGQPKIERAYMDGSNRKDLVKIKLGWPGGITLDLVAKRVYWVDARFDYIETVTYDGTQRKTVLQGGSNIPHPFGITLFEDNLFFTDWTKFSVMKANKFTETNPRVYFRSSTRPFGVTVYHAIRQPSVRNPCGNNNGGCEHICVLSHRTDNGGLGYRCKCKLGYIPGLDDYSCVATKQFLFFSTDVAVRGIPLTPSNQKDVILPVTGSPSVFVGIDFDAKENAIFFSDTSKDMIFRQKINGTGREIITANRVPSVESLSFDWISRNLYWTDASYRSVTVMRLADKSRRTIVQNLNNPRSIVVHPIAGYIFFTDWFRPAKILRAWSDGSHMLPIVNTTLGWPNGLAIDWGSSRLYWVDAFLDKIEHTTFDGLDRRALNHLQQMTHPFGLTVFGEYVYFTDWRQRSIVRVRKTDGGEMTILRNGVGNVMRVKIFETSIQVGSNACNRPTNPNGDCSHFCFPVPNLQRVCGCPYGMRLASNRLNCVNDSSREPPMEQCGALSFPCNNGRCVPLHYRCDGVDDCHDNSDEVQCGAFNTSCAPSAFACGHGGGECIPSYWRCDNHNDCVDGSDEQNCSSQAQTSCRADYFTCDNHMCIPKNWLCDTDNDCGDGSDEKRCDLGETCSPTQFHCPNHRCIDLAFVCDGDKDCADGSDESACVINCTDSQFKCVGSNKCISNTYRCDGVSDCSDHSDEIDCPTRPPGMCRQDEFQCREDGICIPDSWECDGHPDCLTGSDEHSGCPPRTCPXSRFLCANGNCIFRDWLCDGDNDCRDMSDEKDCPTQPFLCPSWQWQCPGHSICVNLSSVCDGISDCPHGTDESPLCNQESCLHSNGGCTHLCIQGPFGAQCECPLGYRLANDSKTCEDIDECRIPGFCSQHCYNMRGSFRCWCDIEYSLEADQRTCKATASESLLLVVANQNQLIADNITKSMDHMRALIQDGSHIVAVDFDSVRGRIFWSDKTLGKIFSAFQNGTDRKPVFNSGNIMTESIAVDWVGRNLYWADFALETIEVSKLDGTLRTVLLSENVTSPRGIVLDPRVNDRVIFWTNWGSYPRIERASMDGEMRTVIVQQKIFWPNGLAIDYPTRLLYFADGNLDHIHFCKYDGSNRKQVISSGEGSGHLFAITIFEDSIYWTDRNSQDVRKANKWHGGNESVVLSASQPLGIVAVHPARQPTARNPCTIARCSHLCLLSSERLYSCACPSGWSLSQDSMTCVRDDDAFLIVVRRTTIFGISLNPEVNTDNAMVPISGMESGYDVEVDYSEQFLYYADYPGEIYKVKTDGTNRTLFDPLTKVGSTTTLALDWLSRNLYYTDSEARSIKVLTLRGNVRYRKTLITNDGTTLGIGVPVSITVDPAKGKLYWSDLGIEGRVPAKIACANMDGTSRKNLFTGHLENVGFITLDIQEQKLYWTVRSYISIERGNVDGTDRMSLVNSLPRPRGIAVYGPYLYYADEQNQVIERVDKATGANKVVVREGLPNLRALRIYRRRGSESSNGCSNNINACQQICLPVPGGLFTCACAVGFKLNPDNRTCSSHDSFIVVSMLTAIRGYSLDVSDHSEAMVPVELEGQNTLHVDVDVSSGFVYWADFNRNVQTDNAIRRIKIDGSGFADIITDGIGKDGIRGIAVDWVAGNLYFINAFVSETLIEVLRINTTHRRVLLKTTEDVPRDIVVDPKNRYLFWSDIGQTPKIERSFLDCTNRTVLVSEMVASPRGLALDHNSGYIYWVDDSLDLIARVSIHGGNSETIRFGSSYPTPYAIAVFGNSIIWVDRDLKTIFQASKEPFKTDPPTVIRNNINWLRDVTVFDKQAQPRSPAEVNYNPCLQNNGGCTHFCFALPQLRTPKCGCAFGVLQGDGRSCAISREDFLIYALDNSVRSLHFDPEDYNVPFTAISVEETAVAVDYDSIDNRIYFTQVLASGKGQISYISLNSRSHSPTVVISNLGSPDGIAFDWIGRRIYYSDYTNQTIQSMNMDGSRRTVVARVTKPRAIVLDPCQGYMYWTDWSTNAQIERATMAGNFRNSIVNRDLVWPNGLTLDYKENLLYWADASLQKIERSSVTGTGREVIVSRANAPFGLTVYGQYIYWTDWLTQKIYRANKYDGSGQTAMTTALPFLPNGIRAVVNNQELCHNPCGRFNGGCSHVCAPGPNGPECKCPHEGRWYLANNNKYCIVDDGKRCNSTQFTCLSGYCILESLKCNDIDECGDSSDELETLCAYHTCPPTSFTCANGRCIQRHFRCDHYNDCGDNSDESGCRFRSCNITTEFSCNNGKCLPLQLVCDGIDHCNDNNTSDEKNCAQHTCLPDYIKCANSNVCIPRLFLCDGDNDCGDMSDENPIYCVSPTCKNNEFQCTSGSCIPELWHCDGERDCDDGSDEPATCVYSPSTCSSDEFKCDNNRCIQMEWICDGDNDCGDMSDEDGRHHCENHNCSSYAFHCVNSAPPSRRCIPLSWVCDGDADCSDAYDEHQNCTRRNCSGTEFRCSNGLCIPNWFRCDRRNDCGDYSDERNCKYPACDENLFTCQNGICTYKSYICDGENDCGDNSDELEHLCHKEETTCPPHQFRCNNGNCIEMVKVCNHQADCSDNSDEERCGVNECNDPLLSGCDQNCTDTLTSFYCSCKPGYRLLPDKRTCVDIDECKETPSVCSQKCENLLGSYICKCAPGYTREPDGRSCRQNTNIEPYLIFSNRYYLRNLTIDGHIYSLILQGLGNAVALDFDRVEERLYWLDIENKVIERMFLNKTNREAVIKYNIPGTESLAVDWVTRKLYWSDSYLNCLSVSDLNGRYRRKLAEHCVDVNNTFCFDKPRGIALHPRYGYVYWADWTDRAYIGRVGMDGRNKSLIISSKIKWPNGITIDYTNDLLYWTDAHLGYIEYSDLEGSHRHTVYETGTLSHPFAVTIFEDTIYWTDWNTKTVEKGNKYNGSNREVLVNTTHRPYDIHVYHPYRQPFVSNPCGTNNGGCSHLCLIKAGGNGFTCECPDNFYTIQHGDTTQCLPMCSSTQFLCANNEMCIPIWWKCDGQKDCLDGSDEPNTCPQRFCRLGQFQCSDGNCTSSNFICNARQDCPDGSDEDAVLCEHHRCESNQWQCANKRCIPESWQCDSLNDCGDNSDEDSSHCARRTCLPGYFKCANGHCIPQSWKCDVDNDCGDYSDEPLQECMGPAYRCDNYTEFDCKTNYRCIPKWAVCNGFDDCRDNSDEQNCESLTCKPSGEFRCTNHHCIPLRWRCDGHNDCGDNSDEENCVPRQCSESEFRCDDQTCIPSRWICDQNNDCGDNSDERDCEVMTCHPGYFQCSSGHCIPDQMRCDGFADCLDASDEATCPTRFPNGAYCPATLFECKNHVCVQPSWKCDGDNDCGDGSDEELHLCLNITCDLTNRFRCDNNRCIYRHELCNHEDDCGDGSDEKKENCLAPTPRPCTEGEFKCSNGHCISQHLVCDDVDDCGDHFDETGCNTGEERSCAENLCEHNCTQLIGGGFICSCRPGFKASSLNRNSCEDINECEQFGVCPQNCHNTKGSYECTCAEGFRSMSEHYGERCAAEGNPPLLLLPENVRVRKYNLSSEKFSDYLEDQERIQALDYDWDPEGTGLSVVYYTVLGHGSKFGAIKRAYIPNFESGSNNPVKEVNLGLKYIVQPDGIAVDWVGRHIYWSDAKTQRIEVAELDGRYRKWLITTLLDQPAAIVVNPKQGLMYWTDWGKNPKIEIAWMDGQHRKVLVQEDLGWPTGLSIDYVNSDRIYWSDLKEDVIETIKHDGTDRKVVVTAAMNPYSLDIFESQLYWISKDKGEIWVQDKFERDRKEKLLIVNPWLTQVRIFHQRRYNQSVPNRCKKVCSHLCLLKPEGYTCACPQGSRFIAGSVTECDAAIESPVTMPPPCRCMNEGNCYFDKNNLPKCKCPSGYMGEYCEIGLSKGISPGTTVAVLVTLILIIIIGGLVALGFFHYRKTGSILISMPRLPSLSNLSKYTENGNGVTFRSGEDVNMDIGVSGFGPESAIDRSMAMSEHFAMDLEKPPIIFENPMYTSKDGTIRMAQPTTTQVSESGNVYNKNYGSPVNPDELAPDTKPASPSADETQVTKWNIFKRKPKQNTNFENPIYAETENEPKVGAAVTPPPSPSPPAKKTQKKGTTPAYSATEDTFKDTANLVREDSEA

NCCCC[C@H](N)C(=O)O [5x-L-lysine, L-lysine]
increase of urinary excretion of CC16 (normalized for creatinine excretion) (megalin pathway): 7 fold | Body weight ([1]; Ctns KO mice at 8 months of age, 2 months of treatment, mean ± SEM): 23.0 ± 0.9 g | Serum creatinine [1, 6]: 0.8 ± 0.1 (n = 9) mg/dL | Serum cystatin-C [1, 6]: 669.2 ± 33.2 ng/mL | Serum glucose [1, 6]: 169.1 ± 9.3 (n = 9) mg/dL | Serum phosphate [1, 6]: 10.1 ± 0.5 (n = 9) mg/dL | Serum urea [1, 6]: 58.3 ± 2.6 (n = 9) mg/dL | Daily creatinine output [1, 7]: 0.7 ± 0.1 mg/day | Diuresis [1, 7]: 2.8 ± 0.2 mL/day | Urine creatinine [1, 7]: 25.6 ± 2.5 mg/dL | Urine glucose/creatinine [1, 7]: 19.0 ± 4.6 g/g | Urine phosphate/creatinine [1, 7]: 2.3 ± 0.4 g/g | Urine urea/creatinine [1, 7]: 173.0 ± 15.2 g/g | Urinary alanine [2]: 639.6 ± 279.6 mM/M creatinine | Urinary cystine [2]: 504.5 ± 61.2 mM/M creatinine | Urinary glycine [2]: 881.0 ± 265.9 mM/M creatinine | urinary lysine concentration reached [2, 8]: ~ 25 mM | increase of cystinuria ([2]; Ctns KO mice): 8 fold | increase of argininuria [2, 9]: 25 fold | increase of lysinuria [2, 9]: 210 fold | concentration at 2 months ([2]; female, C57BL/6, mouse, in vivo, 6.5 g/kg/day, Ctns KO mice, read-out: serum lysine): 581 ± 15.5 µM | effect on megalin binding of lysozyme (porcine megalin [3]): concentration-dependent decrease | IC50 (porcine megalin [4]): 25 mM | SPR signal of amino-acid alone on megalin chip (porcine megalin [4]): no signal was detected | Ki-67 proliferation index in PTCs [5]: undistinguishable

N=C(N)NCCC[C@H](N)C(=O)O [5x-L-arginine, L-arginine]
increase of urinary excretion of CC16 (normalized for creatinine excretion) (megalin pathway): did not detectably increase | Calculated creatinine clearance ([1]; mouse, in vivo): 40.7 ± 3.5 µL/min | Serum creatinine ([1]; mouse, in vivo): 0.9 ± 0.1 mg/dL | Serum cystatin-C ([1]; mouse, in vivo): 1092 ± 56.5 ng/mL | Serum glucose ([1]; mouse, in vivo): 170.9 ± 9.5 mg/dL | Serum phosphate ([1]; mouse, in vivo): 9.7 ± 0.3 mg/dL | Serum urea ([1]; mouse, in vivo): 63.6 ± 3.8 mg/dL | Urine creatinine ([1]; mouse, in vivo): 22.1 ± 2.7 mg/dL | Urine glucose/creatinine ([1]; mouse, in vivo): 25.8 ± 4.0 g/g | Urine phosphate/creatinine ([1]; mouse, in vivo): 1.9 ± 0.2 g/g | Urine urea/creatinine ([1]; mouse, in vivo): 238.2 ± 17.3 g/g | Urinary alanine [2]: 712.5 ± 216.9 mM/M creatinine | Urinary cystine [2]: 146.6 ± 43.7 mM/M creatinine | Urinary glycine [2]: 963.7 ± 218.1 mM/M creatinine | urinary arginine concentration reached [2, 8]: ~ 1 mM | increase of cystinuria ([2]; Ctns KO mice): twofold | increase of argininuria [2, 9]: 33 fold | concentration at 2 months ([2]; female, C57BL/6, mouse, serum, oral, 7.6 g/kg/day, Ctns KO mice, read-out: serum arginine): 137 ± 35 µM | effect on megalin binding of lysozyme (porcine megalin [3]): concentration-dependent decrease | IC50 (porcine megalin [4]): 57 mM | SPR signal of amino-acid alone on megalin chip (porcine megalin [4]): no signal was detected
